Earlier results in article PMC8217170, “Phase Ib dose-escalation study of the hypoxia-modifier Myo-inositol trispyrophosphate in patients with hepatopancreatobiliary tumors” (Nature Communications, 2021).

Experiments:
hepatocellular carcinoma = test system: hepatocellular carcinoma; parameters: method as in ref 10 (supplementary references); conditions: syngeneic, orthotopic rat model of hepatocellular carcinoma; ref 10 (supplementary references); cited from earlier work
pancreatic carcinoma = test system: pancreatic carcinoma; parameters: method as in ref 15 (supplementary references); conditions: 100 mg/kg gemcitabine; ref 15 (supplementary references); cited from earlier work

SMILES | Rats alive after 100 days (hepatocellular carcinoma) | Survival (pancreatic carcinoma) [days]
COc1cccc2c1C(=O)c1c(O)c3c(c(O)c1C2=O)C[C@@](O)(C(=O)CO)C[C@@H]3O[C@H]1C[C@H](N)[C@H](O)[C@H](C)O1 [doxorubicin, reference compound] | one out of ten | 
Nc1ccn([C@@H]2O[C@H](CO)[C@@H](O)C2(F)F)c(=O)n1 [gemcitabine, reference compound] |  | 63
